Experimental data reported in patent US10519177B2, “Heterocyclic compounds and uses thereof” (Plexxikon Inc., priority 2013, dated 2019).
Read-outs that look alike come from different tables or passages of the source.

Assays:
BRD4-BD12 (1-477) = BRD4-BD12 (1-477) (Homo sapiens (Human), UniProt O60885); assay: Alphascreen binding assay BRD4-BD12; conditions: BRD4(1 2) H4; read-out: Biochemical activity (IC50 μM) BRD4(1 2) H4
Experimental: Binding of compounds of formula (I) with bromodomain 2, 3 4 was assessed using Alphascreen binding assay. The inhibition of the interaction between bromodomain and its acetylated target protein (Filippakopoulos P et al. 2012) was measured quantitatively using recombinant BRD proteins, an acetylated Histone 4 peptide and AlphaScreen™ technology. In absence of inhibition the BRD protein bound to AlphaScreen™ nickel chelate acceptor beads can interact with the acetylated Histone 4 peptide which is immobilized by the AlphaScreen™ Streptavidin coated beads. This interaction brings donor and acceptor beads in proximity. The close proximity allows the singlet oxygen produced by laser excitation of the donor beads to reach the acceptor beads and generate a luminescence signal.
Recombinant human bromodomains containing the N-terminal bromodomain (BRD2-BD1 (71-194), BRD3-BD1 (24-144) and BRD4-BD1 (44-164)) or dual bromodomains (BRD4-BD12 (1-477), BRD4-BD12 (1-472)) were prepared and purified as described in protein expression and purification session. The peptide is human Histone H41-21K5AcK8AcK12AcK16Ac-Biotin (Anaspec CA, USA).
Protocol for BRD2, BRD3 and BRD4 assay: All components are prepared in buffer composed of 50 mM HEPES pH 7.5, 100 mM NaCl, 0.01% bovine serum albumin (“BSA”), 0.01% Triton X-100, 2 mM dithiothreitol (“DTT”). 7 μL of Bromodomain protein and 7 μL of peptide are added to wells containing 1 μL of various concentrations of test compounds of formula (I) or DMSO vehicle in an Alphaplate (PerkinElmer GA, USA) and incubated for 1 hour at room temperature. 4 μL donor and acceptor bead mixture is then added with final concentrations of 7.5 μg/ml. 30 minutes after bead addition, Alpha signal is read on the Envision spectrometer (λEx 680 nm, λEm 520-620 nm). Final concentrations of bromodomain proteins and peptide are as shown below.
All data was normalized to the mean of 16 high and 16 low control wells on each plate. A four parameter curve fit of the following formula was then applied: Y=a+(b−a)/(1+(x/c)^d) Where ‘a’ is the minimum, ‘b’ is the maximum, ‘c’ is the pIC50 and ‘d’ is the Hill slope. Protein Expression and Purification
Recombinant human bromodomains containing the N-terminal bromodomain (BRD2-BD1 (71-194), BRD3-BD1 (24-144) and BRD4-BD1 (44-164)) or dual bromodomains (BRD4-BD12 (1-477), BRD4-BD12 (1-472)) were expressed in E. coli cells (in a modified pET vector) with an N-terminal six-His tag and purified using a combination of both IMAC (Ni-affinity) and size exclusion chromatography steps.
Recombinant BRD proteins were expressed using the E. coli strain BL21-CodonPlus (DE3) (Agilent Technologies CA, USA). Cells were grown in Terrific Broth (TB) media to an OD600 of 1.2 at 37° C. at which temperature was reduced to 25° C., protein was induced with 1.0 mM ispropyl-β-D-thiogalactopyranoside (“IPTG”) for 12-18 hours and harvested by centrifugation at 8000×g for 20 minutes. Cells were re-suspended in 0.1M K2PO4 pH 8.0, 250 mM NaCl, 10% Glycerol, 0.75% NP-40, 25 mM Imidazole, 5 mM beta-mercaptoethanol (“BME”) with 0.2 mg/ml Lysosyme, 2.0 mM phenylmethanesulfonyl fluoride (“PMSF”), 25 μg/ml DNAse I, incubated on ice for 30 minutes and lyzed with a cell disruptor (MicroFluidics MA, USA). The lysate was clarified by centrifugation at 20,000×g for 2 hours. The protein was captured with Ni-NTA resin (Life Technologies, USA). Contaminating proteins were washed off with 25 mM Tris-HCl pH 8.3, 250 mM NaCl, 12% Glycerol and 50 mM Imidazole. Following 3× wash steps, protein was eluted step wise using a 50 mM HEPES pH 7.5, 500 mM NaCl and 400 mM Imidazole. The protein was further purified using Gel Filtration column 26/600 Superdex 200 (GE Biosciences NJ, USA) in 50 mM HEPES pH 7.5, 250 mM NaCl. The protein was aliquoted and flash-frozen in liquid Nitrogen.

MV-4-11 cells = assay: Oncology cell growth assay MV-4-11 (CellTiter Glo); type: cell-based; conditions: Homo sapiens, MV4-11, 72 h, read-out: Cell activity (IC50 μM) MV-4-11 3d-Growth
Outline: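 MV-4-11 AML cells (MLL-AF4), 3000 per well, exposed to 8-point 1:3 compound titration from 10 μM top concentration (0.2% DMSO) for 72 h. Viability by CellTiter Glo luminescence, normalized to DMSO controls; pIC50 from four-parameter curve fit.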

SMILES	IC50 (BRD4-BD12 (1-477))	IC50 (MV-4-11 cells; MV-4-11, 3d growth)	IC50 (MV-4-11 cells)
CCOCc1ccc(-c2cn(CC3CCC(F)(F)CC3)c3cc(-c4c(C)noc4C)cnc23)cc1 [P-0909, 4-[1-[(4,4-difluorocyclohexyl)methyl]-3-[4-(ethoxymethyl)phenyl]pyrrolo[3,2-b]pyridin-6-yl]-3,5-dimethyl-isoxazole]	< 1 µM	< 1 µM	–
Cc1ccc(-c2cn([C@@H](C)c3ccccn3)c3cc(-c4c(C)noc4C)cnc23)cc1C(=O)O [P-0999, 5-[6-(3,5-dimethylisoxazol-4-yl)-1-[(1S)-1-(2-pyridyl)ethyl]pyrrolo[3,2-b]pyridin-3-yl]-2-methyl-benzoic acid]	< 1 µM	< 1 µM	–
Cc1noc(C)c1-c1cnc2c(-c3ccc(C(=O)O)cc3)cn(Cc3ccncc3)c2c1 [P-0937, 4-[6-(3,5-dimethylisoxazol-4-yl)-1-(4-pyridylmethyl)pyrrolo[3,2-b]pyridin-3-yl]benzoic acid]	< 1 µM	< 1 µM	–
COC(=O)c1ccc(-c2cn(Cc3ccccc3OC)c3cc(-c4c(C)noc4C)cnc23)cc1 [P-0933, methyl 4-[6-(3,5-dimethylisoxazol-4-yl)-1-[(2-methoxyphenyl)methyl]pyrrolo[3,2-b]pyridin-3-yl]benzoate]	< 1 µM	1 to 10 µM	–
Cc1noc(C)c1-c1cnc2c(-c3ccc(C(C)(C)C(=O)O)cc3)cn([C@@H](C)c3ccccn3)c2c1 [P-1021, 2-[4-[6-(3,5-dimethylisoxazol-4-yl)-1-[(1S)-1-(2-pyridyl)ethyl]pyrrolo[3,2-b]pyridin-3-yl]phenyl]-2-methyl-propanoic acid]	< 1 µM	< 1 µM	–
COC(=O)c1ccc(-c2cn(Cc3cccc(OC)n3)c3cc(-c4c(C)noc4C)cnc23)cc1 [P-0930, methyl 4-[6-(3,5-dimethylisoxazol-4-yl)-1-[(6-methoxy-2-pyridyl)methyl]pyrrolo[3,2-b]pyridin-3-yl]benzoate]	< 1 µM	1 to 10 µM	–
Cc1noc(C)c1-c1cnc2c(-c3csc(C(=O)O)c3)cn([C@@H](C)c3ccccn3)c2c1 [P-1005, 4-[6-(3,5-dimethylisoxazol-4-yl)-1-[(1S)-1-(2-pyridyl)ethyl]pyrrolo[3,2-b]pyridin-3-yl]thiophene-2-carboxylic acid]	< 1 µM	1 to 10 µM	–
Cc1noc(C)c1-c1cnc2c(-c3ccc(C(=O)O)cc3)cn(C(c3ccccn3)C3CCC3)c2c1 (stereo not drawn) [P-1012, 4-[1-[cyclobutyl(2-pyridyl)methyl]-6-(3,5-dimethylisoxazol-4-yl)pyrrolo[3,2-b]pyridin-3-yl]benzoic acid]	< 1 µM	< 1 µM	–
CNC(=O)c1ccc(-c2cn(CC3(F)CCC(F)(F)CC3)c3cc(-c4c(C)noc4C)cnc23)cn1 [P-0380, 5-[6-(3,5-dimethylisoxazol-4-yl)-1-[(1,4,4-trifluorocyclohexyl)methyl]pyrrolo[3,2-b]pyridin-3-yl]-N-methyl-pyridine-2-carboxamide]	< 1 µM	–	< 1 µM
Cc1noc(C)c1-c1cnc2c(C#N)cn(C(c3ccccc3)c3ccccn3)c2c1 (stereo not drawn) [P-0940, 6-(3,5-dimethylisoxazol-4-yl)-1-[phenyl(2-pyridyl)methyl]pyrrolo[3,2-b]pyridine-3-carbonitrile]	< 1 µM	< 1 µM	–
CC[C@H](c1ccccn1)n1cc(-c2ccc(CC(=O)OC)cc2)c2ncc(-c3c(C)noc3C)cc21 [P-0961, methyl 2-[4-[6-(3,5-dimethylisoxazol-4-yl)-1-[(1R)-1-(2-pyridyl)propyl]pyrrolo[3,2-b]pyridin-3-yl]phenyl]acetate]	< 1 µM	< 1 µM	–
COC(=O)Cc1ccc(-c2cn(C(c3ccccn3)C3CCCC3)c3cc(-c4c(C)noc4C)cnc23)cc1 (stereo not drawn) [P-0994, methyl 2-[4-[1-[cyclopentyl(2-pyridyl)methyl]-6-(3,5-dimethylisoxazol-4-yl)pyrrolo[3,2-b]pyridin-3-yl]phenyl]acetate]	< 1 µM	< 1 µM	–
Cc1noc(C)c1-c1cnc2c(-c3ccc(C4(C(=O)O)CC4)cc3)cn(Cc3ccccn3)c2c1 [P-0964, 1-[4-[6-(3,5-dimethylisoxazol-4-yl)-1-(2-pyridylmethyl)pyrrolo[3,2-b]pyridin-3-yl]phenyl]cyclopropanecarboxylic acid]	< 1 µM	< 1 µM	–
Cc1noc(C)c1-c1ccc2c(-c3ccc(CC(=O)O)cc3)cn([C@@H](C)c3ccccn3)c2c1 [P-1031, 2-[4-[6-(3,5-dimethylisoxazol-4-yl)-1-[(1S)-1-(2-pyridyl)ethyl]indol-3-yl]phenyl]acetic acid]	< 1 µM	< 1 µM	–
COC(=O)c1ccc(-c2cn(Cc3ccccc3F)c3cc(-c4c(C)noc4C)cnc23)cc1 [P-0925, methyl 4-[6-(3,5-dimethylisoxazol-4-yl)-1-[(2-fluorophenyl)methyl]pyrrolo[3,2-b]pyridin-3-yl]benzoate]	< 1 µM	< 1 µM	–
CC[C@@H](c1ccccn1)n1cc(-c2ccc(C(=O)O)c(Cl)c2)c2ncc(-c3c(C)noc3C)cc21 [P-1028, 2-chloro-4-[6-(3,5-dimethylisoxazol-4-yl)-1-[(1S)-1-(2-pyridyl)propyl]pyrrolo[3,2-b]pyridin-3-yl]benzoic acid]	< 1 µM	< 1 µM	–
Cc1ncc(Cn2cc(-c3ccc(C(=O)O)cc3)c3ncc(-c4c(C)noc4C)cc32)s1 [P-0958, 4-[6-(3,5-dimethylisoxazol-4-yl)-1-[(2-methylthiazol-5-yl)methyl]pyrrolo[3,2-b]pyridin-3-yl]benzoic acid]	< 1 µM	< 1 µM	–
CNS(=O)(=O)c1cccc(-c2cn([C@@H](C)c3ccccn3)c3cc(-c4c(C)noc4C)cnc23)c1 [P-0980, 3-[6-(3,5-dimethylisoxazol-4-yl)-1-[(1S)-1-(2-pyridyl)ethyl]pyrrolo[3,2-b]pyridin-3-yl]-N-methyl-benzenesulfonamide]	< 1 µM	< 1 µM	–
COC(=O)C1(c2ccc(-c3cn([C@@H](C)c4ccccn4)c4cc(-c5c(C)noc5C)cnc34)cc2)CC1 [P-0942, methyl 1-[4-[6-(3,5-dimethylisoxazol-4-yl)-1-[(1S)-1-(2-pyridyl)ethyl]pyrrolo[3,2-b]pyridin-3-yl]phenyl]cyclopropanecarboxylate]	< 1 µM	< 1 µM	–
COC(=O)c1ccc(-c2cn(Cc3ccccc3)c3cc(-c4c(C)noc4C)cnc23)cc1 [P-0919, methyl 4-[1-benzyl-6-(3,5-dimethylisoxazol-4-yl)pyrrolo[3,2-b]pyridin-3-yl]benzoate]	< 1 µM	< 1 µM	–
Cc1noc(C)c1-c1ccc2c(-c3cnc(C4CC4)nc3)cn(C(c3ccccc3)c3ccccn3)c2c1 (stereo not drawn) [P-1042, 4-[3-(2-cyclopropylpyrimidin-5-yl)-1-[phenyl(2-pyridyl)methyl]indol-6-yl]-3,5-dimethyl-isoxazole]	< 1 µM	< 1 µM	–
